Source: PubChem BioAssay (NCI)
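48-hour exposure; five concentrations; linearly interpolated endpoints. GI50 is the concentration that inhibits growth by half. TGI denotes the concentration required for complete inhibition of growth.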

Columns and labels:
Experiment in all cases: NCI-60 cell line screen, 48 h
786-0 renal = system: 786-0 renal
A498 renal = system: A498 renal
A549 NSCLC = system: A549 NSCLC
ACHN renal = system: ACHN renal
BT-549 breast = system: BT-549 breast
CAKI-1 renal = system: CAKI-1 renal
CCRF-CEM leukemia = system: CCRF-CEM leukemia
COLO 205 colon = system: COLO 205 colon
DU-145 prostate = system: DU-145 prostate
EKVX NSCLC = system: EKVX NSCLC
HCC-2998 colon = system: HCC-2998 colon
HCT-116 colon = system: HCT-116 colon
HCT-15 colon = system: HCT-15 colon
HL-60(TB) leukemia = system: HL-60(TB) leukemia
HOP-62 NSCLC = system: HOP-62 NSCLC
HOP-92 NSCLC = system: HOP-92 NSCLC
HS 578T breast = system: HS 578T breast
HT29 colon = system: HT29 colon
IGROV1 ovarian = system: IGROV1 ovarian
K-562 leukemia = system: K-562 leukemia
KM12 colon = system: KM12 colon
LOX IMVI melanoma = system: LOX IMVI melanoma
M14 melanoma = system: M14 melanoma
MALME-3M melanoma = system: MALME-3M melanoma
MCF7 breast = system: MCF7 breast
MDA-MB-231 breast = system: MDA-MB-231 breast
MDA-MB-435 = system: MDA-MB-435
MOLT-4 leukemia = system: MOLT-4 leukemia
NCI-H226 lung = system: NCI-H226 lung
NCI-H23 lung = system: NCI-H23 lung
NCI-H460 lung = system: NCI-H460 lung
NCI-H522 lung = system: NCI-H522 lung
NCI/ADR-RES ovarian = system: NCI/ADR-RES ovarian
OVCAR-3 ovarian = system: OVCAR-3 ovarian
OVCAR-4 ovarian = system: OVCAR-4 ovarian
OVCAR-5 ovarian = system: OVCAR-5 ovarian
OVCAR-8 ovarian = system: OVCAR-8 ovarian
PC-3 prostate = system: PC-3 prostate
RPMI-8226 leukemia = system: RPMI-8226 leukemia
RXF 393 renal = system: RXF 393 renal
SF-268 CNS = system: SF-268 CNS
SF-295 CNS = system: SF-295 CNS
SF-539 CNS = system: SF-539 CNS
SK-MEL-2 melanoma = system: SK-MEL-2 melanoma
SK-MEL-28 melanoma = system: SK-MEL-28 melanoma
SK-MEL-5 melanoma = system: SK-MEL-5 melanoma
SK-OV-3 ovarian = system: SK-OV-3 ovarian
SN12C renal = system: SN12C renal
SNB-19 CNS = system: SNB-19 CNS
SNB-75 CNS = system: SNB-75 CNS
SR leukemia = system: SR leukemia
SW-620 colon = system: SW-620 colon
TK-10 renal = system: TK-10 renal
U251 CNS = system: U251 CNS
UACC-257 melanoma = system: UACC-257 melanoma
UACC-62 melanoma = system: UACC-62 melanoma
UO-31 renal = system: UO-31 renal

COC1=CC(c2ccc[nH]2)=N/C1=C\c1[nH]c(C)c(C(=O)CCCCC(=O)NC(C)(C)C)c1C
GI50 (786-0 renal): 1700 nM | TGI (786-0 renal): 3360 nM | GI50 (A498 renal): 2930 nM | TGI (A498 renal): 10800 nM | GI50 (A549 NSCLC): 3340 nM | TGI (A549 NSCLC): 21700 nM | GI50 (ACHN renal): 1700 nM | TGI (ACHN renal): 3700 nM | GI50 (BT-549 breast): 1410 nM | TGI (BT-549 breast): 4500 nM | GI50 (CAKI-1 renal): 1390 nM | TGI (CAKI-1 renal): 4430 nM | GI50 (CCRF-CEM leukemia): 526 nM | GI50 (COLO 205 colon): 1220 nM | TGI (COLO 205 colon): 2460 nM | GI50 (DU-145 prostate): 1690 nM | TGI (DU-145 prostate): 3790 nM | GI50 (EKVX NSCLC): 1960 nM | TGI (EKVX NSCLC): 13000 nM | GI50 (HCC-2998 colon): 1880 nM | TGI (HCC-2998 colon): 6090 nM | GI50 (HCT-116 colon): 1200 nM | TGI (HCT-116 colon): 2430 nM | GI50 (HCT-15 colon): 683 nM | TGI (HCT-15 colon): 2060 nM | GI50 (HL-60(TB) leukemia): 1910 nM | TGI (HL-60(TB) leukemia): 4060 nM | GI50 (HOP-62 NSCLC): 1740 nM | TGI (HOP-62 NSCLC): 5020 nM | GI50 (HOP-92 NSCLC): 1540 nM | TGI (HOP-92 NSCLC): 4970 nM | GI50 (HS 578T breast): 1750 nM | TGI (HS 578T breast): 4260 nM | GI50 (HT29 colon): 552 nM | TGI (HT29 colon): 3110 nM | GI50 (IGROV1 ovarian): 2100 nM | TGI (IGROV1 ovarian): 4590 nM | GI50 (K-562 leukemia): 1940 nM | GI50 (KM12 colon): 1160 nM | TGI (KM12 colon): 2380 nM | GI50 (LOX IMVI melanoma): 1150 nM | TGI (LOX IMVI melanoma): 2420 nM | GI50 (M14 melanoma): 1620 nM | TGI (M14 melanoma): 3100 nM | GI50 (MALME-3M melanoma): 1470 nM | TGI (MALME-3M melanoma): 3120 nM | GI50 (MCF7 breast): 1500 nM | TGI (MCF7 breast): 2920 nM | GI50 (MDA-MB-231 breast): 957 nM | TGI (MDA-MB-231 breast): 3950 nM | GI50 (MDA-MB-435): 1750 nM | TGI (MDA-MB-435): 3470 nM | GI50 (MOLT-4 leukemia): 854 nM | TGI (MOLT-4 leukemia): 4290 nM | GI50 (NCI-H226 lung): 2970 nM | TGI (NCI-H226 lung): 15000 nM | GI50 (NCI-H23 lung): 1570 nM | TGI (NCI-H23 lung): 4460 nM | GI50 (NCI-H460 lung): 1870 nM | TGI (NCI-H460 lung): 4520 nM | GI50 (NCI-H522 lung): 2090 nM | TGI (NCI-H522 lung): 6730 nM | GI50 (NCI/ADR-RES ovarian): 1610 nM | TGI (NCI/ADR-RES ovarian): 3210 nM | GI50 (OVCAR-3 ovarian): 1220 nM | TGI (OVCAR-3 ovarian): 2730 nM | GI50 (OVCAR-4 ovarian): 1780 nM | TGI (OVCAR-4 ovarian): 6290 nM | GI50 (OVCAR-5 ovarian): 1890 nM | TGI (OVCAR-5 ovarian): 8730 nM | GI50 (OVCAR-8 ovarian): 2250 nM | TGI (OVCAR-8 ovarian): 5450 nM | GI50 (PC-3 prostate): 1210 nM | TGI (PC-3 prostate): 2570 nM | GI50 (RPMI-8226 leukemia): 237 nM | TGI (RPMI-8226 leukemia): 1640 nM | GI50 (RXF 393 renal): 1660 nM | TGI (RXF 393 renal): 3600 nM | GI50 (SF-268 CNS): 1600 nM | TGI (SF-268 CNS): 4320 nM | GI50 (SF-295 CNS): 2170 nM | TGI (SF-295 CNS): 6660 nM | GI50 (SF-539 CNS): 3270 nM | TGI (SF-539 CNS): 9940 nM | GI50 (SK-MEL-2 melanoma): 17700 nM | TGI (SK-MEL-2 melanoma): 42500 nM | GI50 (SK-MEL-28 melanoma): 1590 nM | TGI (SK-MEL-28 melanoma): 3200 nM | GI50 (SK-MEL-5 melanoma): 1970 nM | TGI (SK-MEL-5 melanoma): 5240 nM | GI50 (SK-OV-3 ovarian): 9310 nM | TGI (SK-OV-3 ovarian): 25500 nM | GI50 (SN12C renal): 2190 nM | TGI (SN12C renal): 7320 nM | GI50 (SNB-19 CNS): 3010 nM | TGI (SNB-19 CNS): 18700 nM | GI50 (SNB-75 CNS): 2790 nM | TGI (SNB-75 CNS): 9000 nM | GI50 (SR leukemia): 395 nM | TGI (SR leukemia): 2350 nM | GI50 (SW-620 colon): 947 nM | TGI (SW-620 colon): 2260 nM | GI50 (TK-10 renal): 1390 nM | TGI (TK-10 renal): 3410 nM | GI50 (U251 CNS): 1290 nM | TGI (U251 CNS): 2570 nM | GI50 (UACC-257 melanoma): 16000 nM | TGI (UACC-257 melanoma): 35800 nM | GI50 (UACC-62 melanoma): 3590 nM | TGI (UACC-62 melanoma): 10800 nM | GI50 (UO-31 renal): 1950 nM | TGI (UO-31 renal): 6270 nM
